In US10800755B2, “2,6-disubstituted pyridine derivative” (Sumitomo Dainippon Pharma Co., Ltd., priority 2017, dated 2020):
Like-named read-outs stand apart in the source and are kept apart here.

What was measured:
human 5-HT1A receptor [1] = target: T1, human 5-HT1A receptor (Homo sapiens (Human), UniProt P08908); assay: Test 1: agonistic activity for human 5-HT1A receptor (aequorin/Gα16 luminescence in CHO-K1 cell); format: cell-based; settings: for 5-HT1A agonistic activity Emax / Emax: 100% = 10 μmol/L endogenous ligand; for EC50: CHO-K1 cell, aequorin luminescence; for Emax: CHO-K1
T1 sequence (P08908 whole entry): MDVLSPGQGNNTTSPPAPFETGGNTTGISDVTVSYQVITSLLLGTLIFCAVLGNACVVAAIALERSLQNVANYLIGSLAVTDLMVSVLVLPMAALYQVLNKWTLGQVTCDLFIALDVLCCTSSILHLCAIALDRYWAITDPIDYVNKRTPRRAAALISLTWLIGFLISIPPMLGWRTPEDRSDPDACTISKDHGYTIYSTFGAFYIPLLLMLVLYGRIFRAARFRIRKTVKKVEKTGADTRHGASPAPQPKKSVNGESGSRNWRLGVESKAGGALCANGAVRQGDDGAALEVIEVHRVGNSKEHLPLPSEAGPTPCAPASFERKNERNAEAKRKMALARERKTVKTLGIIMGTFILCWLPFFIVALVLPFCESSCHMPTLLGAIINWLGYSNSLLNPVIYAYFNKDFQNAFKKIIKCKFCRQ
Protocol: (§1) Test 1: Evaluation of Agonistic Activity for Human 5-HT1A Receptor and Human D4 Receptor
(§2) Aequorin, Gα16 proteins, and each receptor were transiently expressed in CHO-K1 cell (Chinese hamster ovary), and seeded to 384-well plate. The plate was incubated in a CO2 incubator at 37° C. for 24 hours. Each example compound dissolved in DMSO was added thereto, and the change of luminescence amount was measured with Hamamatsu FDSS/μCELL System (Hamamatsu Photonics).

human D4 receptor [2] = target: T2, human D4 receptor (Homo sapiens (Human), UniProt P21917); assay: Test 1: agonistic activity for human D4 receptor (aequorin/Gα16 luminescence in CHO-K1 cell); format: cell-based; settings: for D4 agonistic activity Emax / Emax: 100% = 10 μmol/L endogenous ligand; for EC50: CHO-K1 cell, aequorin luminescence; for Emax: CHO-K1
T2 sequence (P21917 whole entry): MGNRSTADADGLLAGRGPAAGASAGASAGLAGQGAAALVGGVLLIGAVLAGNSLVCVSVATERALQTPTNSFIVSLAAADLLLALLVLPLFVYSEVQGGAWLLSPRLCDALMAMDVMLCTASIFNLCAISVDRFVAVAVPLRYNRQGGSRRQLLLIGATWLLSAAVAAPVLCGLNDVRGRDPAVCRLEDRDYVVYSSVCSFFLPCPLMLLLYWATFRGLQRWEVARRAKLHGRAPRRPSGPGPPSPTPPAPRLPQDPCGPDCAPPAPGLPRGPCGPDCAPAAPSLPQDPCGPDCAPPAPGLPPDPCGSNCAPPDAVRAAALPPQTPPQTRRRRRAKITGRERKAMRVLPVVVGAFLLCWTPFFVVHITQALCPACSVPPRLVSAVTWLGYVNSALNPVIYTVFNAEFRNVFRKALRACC
Protocol: as §1, §2

human 5-HT1A receptor [3] = target: T1, human 5-HT1A receptor; assay: Test 2: binding activity to human 5-HT1A receptor ([3H] 8-OH-DPAT, CHO cell membrane)
Protocol: (§3) Test 2: Evaluation of Binding Activity to Human 5-HT1A Receptor, Human D4 Receptor, and Human D2 Receptor
(§4) CHO cell membrane fraction in which human 5-HT1A receptor, human D4 receptor, and human D2 receptor were expressed was purchased from PerkinElmer Co., Ltd. In the evaluation test of binding, the test compound dissolved in DMSO, each receptor membrane preparation diluted with buffer solution, and [3H] […] The nonspecific binding to each receptor was evaluated by a competition binding experiment in the presence of 10 μmol/L 8-OH-DPAT, 10 μmol/L dopamine, or 10 μmol/L spiperone, respectively.

human D4 receptor [4] = target: T2, human D4 receptor; assay: Test 2: binding activity to human D4 receptor ([3H] dopamine, CHO cell membrane)
Protocol: as §3, §4

human D2 receptor = human D2 receptor (Homo sapiens (Human), UniProt P14416); assay: Test 2: binding activity to human D2 receptor ([3H] spiperone, CHO cell membrane)
Sequence of human D2 receptor (P14416 whole entry): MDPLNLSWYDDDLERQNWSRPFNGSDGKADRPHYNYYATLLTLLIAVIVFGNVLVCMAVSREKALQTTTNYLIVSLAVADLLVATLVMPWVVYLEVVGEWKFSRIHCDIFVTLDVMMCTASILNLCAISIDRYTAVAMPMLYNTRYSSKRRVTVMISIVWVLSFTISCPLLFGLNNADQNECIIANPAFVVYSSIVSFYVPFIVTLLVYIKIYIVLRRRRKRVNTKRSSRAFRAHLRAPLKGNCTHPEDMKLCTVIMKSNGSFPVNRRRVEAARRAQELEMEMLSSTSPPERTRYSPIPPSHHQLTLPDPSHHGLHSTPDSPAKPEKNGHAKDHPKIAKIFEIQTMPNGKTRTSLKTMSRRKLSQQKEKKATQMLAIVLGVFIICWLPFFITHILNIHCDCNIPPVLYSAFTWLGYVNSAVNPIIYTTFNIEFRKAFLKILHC
Protocol: as §3, §4

[5] = Test 3-1: metabolic stability test of human liver microsome (0.1 mg/mL); format: in vitro ADME; settings: test compound 0.1 μmol/L, 37° C., 30 minutes
Protocol: Test 3-1: Metabolic Stability Test of Human Liver Microsome
The stability of the present compounds for human liver microsome metabolism was evaluated as mentioned below. The used human liver microsome was obtained from Xenontech. Human liver microsome, NADPH, and each test compound were mixed in 25 mmol/L phosphate buffer solution (pH 7.4) to adjust each concentration as shown below, and the mixture was incubated at 37° C. for 30 minutes. • human liver microsome: 0.1 mg/mL • NAPDH: 3.2 mmol/L • test compound: 0.1 μmol/L
The residual ratio of the test compound in each sample after the incubation for 30 minutes was measured with a LC-MS, and the metabolic stability of human liver microsome was calculated about each test compound with the following formula. Metabolic stability of human liver microsome (mL/min/mg protein)=−LN (residual ratio)/“reaction time”/“concentration of human liver microsome”

hERG channel = hERG channel (Homo sapiens (Human), UniProt Q12809); assay: Test 5-2: activity for inhibiting hERG channel (whole-cell patch clamp, hERG-CHO cell, Qube); format: cell-based; settings: read-out: hERG inhibition IC50
Sequence of hERG channel (Q12809 whole entry): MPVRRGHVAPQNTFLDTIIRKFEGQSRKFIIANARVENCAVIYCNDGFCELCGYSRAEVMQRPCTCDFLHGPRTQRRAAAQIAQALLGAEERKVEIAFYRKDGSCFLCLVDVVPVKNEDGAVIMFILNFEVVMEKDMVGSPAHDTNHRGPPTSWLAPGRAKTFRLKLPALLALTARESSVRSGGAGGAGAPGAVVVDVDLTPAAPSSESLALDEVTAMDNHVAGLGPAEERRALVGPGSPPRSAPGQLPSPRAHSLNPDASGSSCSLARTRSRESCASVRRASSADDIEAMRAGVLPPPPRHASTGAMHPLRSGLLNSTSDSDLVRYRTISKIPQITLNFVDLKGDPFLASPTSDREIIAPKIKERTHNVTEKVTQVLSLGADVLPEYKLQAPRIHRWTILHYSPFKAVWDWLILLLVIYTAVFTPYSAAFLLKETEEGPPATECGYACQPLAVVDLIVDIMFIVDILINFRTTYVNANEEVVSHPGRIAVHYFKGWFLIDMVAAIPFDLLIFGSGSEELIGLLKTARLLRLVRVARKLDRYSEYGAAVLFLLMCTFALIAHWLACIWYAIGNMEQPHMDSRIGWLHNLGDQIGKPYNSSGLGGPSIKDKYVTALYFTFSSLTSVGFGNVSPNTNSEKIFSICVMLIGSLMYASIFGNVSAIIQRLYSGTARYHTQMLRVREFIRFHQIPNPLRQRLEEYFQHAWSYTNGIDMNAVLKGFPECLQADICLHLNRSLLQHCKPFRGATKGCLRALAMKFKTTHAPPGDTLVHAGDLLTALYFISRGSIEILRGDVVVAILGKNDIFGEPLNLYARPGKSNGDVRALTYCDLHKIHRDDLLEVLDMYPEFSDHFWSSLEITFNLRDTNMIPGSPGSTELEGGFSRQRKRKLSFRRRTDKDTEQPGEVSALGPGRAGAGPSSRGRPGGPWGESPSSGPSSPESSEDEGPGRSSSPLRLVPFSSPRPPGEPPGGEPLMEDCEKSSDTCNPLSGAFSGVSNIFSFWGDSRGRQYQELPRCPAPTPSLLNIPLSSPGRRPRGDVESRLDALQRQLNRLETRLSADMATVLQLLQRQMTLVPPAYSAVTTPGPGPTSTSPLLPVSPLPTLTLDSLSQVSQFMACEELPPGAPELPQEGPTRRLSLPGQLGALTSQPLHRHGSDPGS
Protocol: Test 5-2: Evaluation of Activity for Inhibiting hERG Channel
The activity of the present compound for inhibiting hERG channel was measured by whole-cell patch clamp method with auto patch clamp system, using CHO cell wherein hERG channel involved in human rapidly activating delayed rectifier potassium current (IKr) was forcibly expressed.
hERG-CHO cell purchased from ChanTest was incubated at 37° C. in a CO2 incubator, and the cell was exfoliated from the flask with trypsin to prepare a cell suspension, shortly before the hERG current measurement.
Extracellular fluid: 2 mmol/L CaCl2, 1 mmol/L MgCl2, 10 mmol/L HEPES, 4 mmol/L KCl, 145 mmol/L NaCl, 10 mmol/L glucose
Intracellular fluid: 10 mmol/L HEPES, 10 mmol/L EGTA, 20 mmol/L KCl, 130 mmol/L KF
Test compound solution: The compound was dissolved in DMSO by adjusting the concentration to 2 mmol/L or 20 mmol/L to prepare each test compound solution. […] (Measurement of Current Value and Data Analysis)
The cell suspension, the extracellular fluid, the intracellular fluid, and the measurement plate were set in an auto patch clamp system, and the hERG current was measured by whole-cell patch clamp method. The voltage-protocol was as follows: the holding potential was adjusted to −80 mV, the depolarizing pulse was added at −50 mV to +20 mV for 5 seconds, the repolarizing pulse was added at −50 mV for 5 seconds, then the potential was returned to the holding potential. Each pulse interval was 15 seconds. The data analysis was carried out with Qube Assay Software (Sophion Scientific). The test was carried out applying increscently 4 concentrations of each test compound, and the average of the peak tail currents that were obtained by the last 3 stimulations in each applied concentration was made to be the evaluated data. By using the current inhibition rate for the pre-applied current at each concentration of each test compound, IC50 value was calculated by Hill equation with the software.

[6] = [3H] 8-OH-DPAT, read-out: 5-HT1A binding affinity (Ki value)
[7] = [3H] dopamine, read-out: D4 binding affinity (Ki value)
[8] = [3H] spiperone, read-out: D2 binding affinity (Ki value)

SMILES	5-HT1A agonistic activity Emax (human 5-HT1A receptor [1]) [%]	EC50 (human 5-HT1A receptor [1]) [nM]	D4 agonistic activity Emax (human D4 receptor [2]) [%]	EC50 (human D4 receptor [2]) [nM]	Ki (human 5-HT1A receptor [3]; [6]) [nM]	Ki (human D4 receptor [4]; [7]) [nM]	Ki (human D2 receptor; [8]) [nM]	Metabolic stability of human liver microsome [5] [mL/min/mg protein]	Emax (human 5-HT1A receptor [1]) [%]	Emax (human D4 receptor [2]) [%]	Ki (human D4 receptor [4]) [nM]	IC50 (hERG channel) [nM]	Ki (human 5-HT1A receptor [3]) [nM]	Ki (human D2 receptor) [nM]
COCC(C)(C)C(=O)NCCN1CCC(c2cccc(C)n2)CC1 [Example 5]	100	42	57	55.8	80	170	> 10000	<0.01						
COCC(C)(C)C(=O)NCCN1CCC(c2cccc(C(F)(F)F)n2)CC1 [Example 6]	96	44	58	< 10	37	101	> 10000	<0.01						
O=C(NCCN1CC=C(c2cccc(C(F)(F)F)n2)CC1)C1CCC(F)(F)CC1 [Example 12, 4,4-Difluoro-N-{2-[6-(trifluoromethyl)-3′,6′-dihydro[2,4′-bipyridin]-1′ (2′H)-yl]ethyl}-cyclohexane-1-carboxamide]		< 10		35	0.2		357	0.115	43	52	4.5	3500		
Cc1cccc(C2=CCN(CCNC(=O)[C@H]3C[C@@H]4CC[C@H]3O4)CC2)n1 [Example 13]		< 10		< 10	1.1		> 10000	<0.05	48	55	24	> 10000		
Cc1cccc(C2=CCN(CCNC(=O)C3CCC(F)(F)CC3)CC2)n1 [Example 14]		< 10		< 10	0.1		2440	0.084	41	53	3	8100		
Cc1cccc(C2CCN(CCNC(=O)C3CCCOC3)CC2)n1 (stereo not drawn) [Example 15]		100		41	13	505	> 10000	<0.05	33	55		> 10000		
O=C(NCCN1CC=C(c2cccc(C(F)(F)F)n2)CC1)C1CCCOC1 (stereo not drawn) [Example 16, N-{2-[6-(Trifluoromethyl)-3′,6′-dihydro[2,4′-bipyridin]-1′ (2′H)-yl]ethyl}-tetrahydro-2H-pyran-3-carboxamide]		43		31	6		1690	<0.05	36	51	27	> 10000		
COCC(C)(C)C(=O)NCCN1CC=C(c2cccc(C)n2)CC1 [Example 17]		94		44	26		> 10000		30	51	91			
COCC(C)(C)C(=O)NCCN1CC=C(c2cccc(C(F)(F)F)n2)CC1 [Example 18]		68		37	21		2210	<0.05	43	61	19	> 10000		
O=C(NCCN1CC=C(c2cccc(C(F)(F)F)n2)CC1)C1CCOCC1 [Example 19]		< 10		9	0.8		> 10000		65	84	8			
Cc1cccc(C2=CCN(CCNC(=O)C3CCCCO3)CC2)n1 (stereo not drawn) [Example 20]		57		15				<0.05	40	60	92	> 10000	6.8	> 10000
O=C(NCCN1CCC(c2cccc(C(F)(F)F)n2)CC1)[C@H]1C[C@@H]2CC[C@H]1O2 [Example 21]		84		65	15	201	2170	<0.05	30	62		> 10000		
Cc1cccc(C2CCN(CCNC(=O)C3CCOC3)CC2)n1 (stereo not drawn) [Example 22]		595		57	58	2240	> 10000		25	57				
O=C(NCCN1CCC(c2cccc(C(F)(F)F)n2)CC1)C1CCOC1 (stereo not drawn) [Example 23]		632		62	166	408	> 10000		28	59				
Cc1cccc(C2CCN(CCNC(=O)C3CCCO3)CC2)n1 (stereo not drawn) [Example 24]		67		32	27	3380	> 10000		50	62				
CO[C@H]1CC[C@H](C(=O)NCCN2CCC(c3cccc(C)n3)CC2)CC1 [Example 26]		395		3390	79	1900	> 10000		43	36				
CO[C@H]1CC[C@H](C(=O)NCCN2CCC(c3cccc(C(F)(F)F)n3)CC2)CC1 [Example 27]		570		1650	77	2470	> 10000		44	51				
O=C(NCCN1CCC(c2cccc(F)n2)CC1)C1CCOCC1 [Example 32]		67		7	42	96	> 10000		51	67				
N#Cc1cccc(C2CCN(CCNC(=O)C3CCOCC3)CC2)n1 [Example 35, N-{2-[4-(6-Cyanopyridin-2-yl)piperidin-1-yl]ethyl}-tetrahydro-2H-pyran-4-carboxamide]		525		64	278	2260	> 10000		27	52				
Nc1cccc(C2CCN(CCNC(=O)C3CCOCC3)CC2)n1 [Example 36, N-{2-[4-(6-Aminopyridin-2-yl)piperidin-1-yl]ethyl}-tetrahydro-2H-pyran-4-carboxamide]		279		31	132	120	> 10000		38	58				
CNc1cccc(C2CCN(CCNC(=O)C3CCOCC3)CC2)n1 [Example 37, N-(2-{4-[6-(Methylamino)pyridin-2-yl]piperidin-1-yl}ethyl)-tetrahydro-2H-pyran-4-carboxamide]		343		52	108	73	> 10000		40	57				
